From US20260092054A1, “FUSED RING COMPOUND AND PHARMACEUTICAL CONTAINING SAME” (KAKEN PHARMACEUTICAL CO., LTD., priority 2022, published 2026)

How the values were obtained:
[1] = target: T1, human STAT6/pIL-4Rα (Homo sapiens, UniProt P42226); assay: Binding inhibitory activity between human STAT6/pIL-4Rα by fluorescence polarization method; settings: rhSTAT6 (123-658) / FAM-pIL-4Rα peptide
T1 construct: histidine tag
T1 sequence (P42226 123-658): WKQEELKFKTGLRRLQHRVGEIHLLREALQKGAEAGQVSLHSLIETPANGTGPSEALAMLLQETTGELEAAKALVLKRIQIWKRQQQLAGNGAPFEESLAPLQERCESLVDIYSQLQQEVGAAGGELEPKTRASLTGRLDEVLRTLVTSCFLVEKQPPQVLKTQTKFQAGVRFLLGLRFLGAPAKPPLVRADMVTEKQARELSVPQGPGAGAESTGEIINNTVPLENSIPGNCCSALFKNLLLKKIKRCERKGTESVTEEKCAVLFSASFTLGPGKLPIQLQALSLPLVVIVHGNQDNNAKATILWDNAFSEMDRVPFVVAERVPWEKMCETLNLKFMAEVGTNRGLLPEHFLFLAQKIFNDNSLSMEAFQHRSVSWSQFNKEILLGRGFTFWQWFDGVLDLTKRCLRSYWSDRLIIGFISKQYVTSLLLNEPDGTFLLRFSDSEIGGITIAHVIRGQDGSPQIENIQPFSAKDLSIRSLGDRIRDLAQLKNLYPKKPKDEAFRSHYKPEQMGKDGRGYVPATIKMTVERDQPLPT
Summary of the method: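 His-tagged human STAT6 (residues 123–658, E. coli-expressed) was preincubated with compound for 30 min at RT in the dark, in buffer e.g. 50 mM NaCl, 10 mM HEPES pH 7.0, 1 mM DTT, 1 mM EDTA, 0.01% NP-40. FAM-pIL-4Rα peptide was then added for 30 min. Fluorescence polarisation was read at 485/535 nm, with IC50 interpolated linearly between two points flanking 50%.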

[2] = system: human STAT6; assay: Human STAT6 dependent reporter activity (IL-4 stimulated STAT6 reporter assay using STAT6-HEK293 cells); format: cell-based; settings: Homo sapiens, IL-4 stimulation, luciferase activity, read-out: Inhibition rate (%); for inhibition at 0.1 µM: compound 0.1 μmol/L; for inhibition at 1 µM: compound 1 μmol/L

SMILES	IC50 [1]	inhibition at 0.1 µM [2]	inhibition at 1 µM [2]
CCn1c(-c2ccc(N3C(=O)C(C)CC3C)cc2)cc2cccc(C(=O)Nc3ccc(F)c(C(N)=O)c3)c21 (centres unmarked) [Ex. 158]	730 nM	44%	96%
CCn1c(-c2ccc(N3C(=O)C(C)CC3C)cc2)cc2cc(C(F)(F)F)cc(C(=O)Nc3cccc(C(N)=O)c3)c21 (centres unmarked) [Ex. 159]	530 nM	50%	95%
CCn1c(-c2ccc(N3C(=O)C(C)CC3C)cc2)cc2cc(C(F)(F)F)cc(C(=O)Nc3ccc(F)c(C(N)=O)c3)c21 (centres unmarked) [Ex. 160]	410 nM	93%	100%
CCn1c(-c2ccc(N3C(=O)C(C)CC3C)cc2)cc2cc(C(F)(F)F)cc(C(=O)Nc3cccc(C(N)=O)c3F)c21 (centres unmarked) [Ex. 161]	870 nM	86%	99%
COCCn1c(-c2ccc(-n3c(C)nn(C)c3=O)cc2)cc2cc(C(F)(F)F)cc(C(=O)Nc3cccc(C(=O)Nc4cc[nH]n4)c3)c21 [Ex. 163]	270 nM	60%	99%
CCn1c(-c2ccc(-n3c(C)nn(C)c3=O)cc2)cc2ccnc(C(=O)Nc3cccc(C(=O)Nc4cc(C)cn(C)c4=O)c3)c21 [Ex. 165]	200 nM	86%	100%
CCn1c(-c2ccc(-n3c(C)nn(C)c3=O)cc2)cc2ccnc(C(=O)Nc3cccc(C(=O)Nc4cn(C)c(=O)n(C)c4=O)c3)c21 [Ex. 166]	350 nM	76%	99%
CCn1c(-c2ccc(-n3c(C)nn(C)c3=O)cc2)cc2ccnc(C(=O)Nc3cccc(C(=O)Nc4cncn(C)c4=O)c3)c21 [Ex. 167]	240 nM	90%	99%
CCn1c(-c2ccc(-n3c(C)nn(C)c3=O)cc2)cc2ccnc(C(=O)Nc3ccc(F)c(C(=O)NCC#N)c3)c21 [Ex. 168]	350 nM	60%	99%
CCn1c(-c2ccc(-n3c(C)nn(C)c3=O)cc2)cc2ccnc(C(=O)Nc3cccc(C(=O)Nc4cccn(C)c4=O)c3)c21 [Ex. 169]	400 nM	81%	99%
CCn1c(-c2ccc(-n3c(C)nn(C)c3=O)cc2)cc2cc(C(F)(F)F)cc(C(=O)Nc3cccc(C(=O)NCC(=O)N(C)C)c3)c21 [Ex. 170]	400 nM	49%	99%
COCCn1c(-c2ccc(-n3c(C)nn(C)c3=O)cc2)cc2cc(C(F)(F)F)cc(C(=O)Nc3cccc(C(N)=O)n3)c21 [Ex. 171]	330 nM	29%	95%
CNC(=O)c1cccc(NC(=O)c2cc(C(F)(F)F)cc3cc(-c4ccc(-n5c(C)nn(C)c5=O)cc4)n(CCOC)c23)n1 [Ex. 172]	380 nM	17%	83%
COCCn1c(-c2ccc(-n3c(C)nn(C)c3=O)cc2)cc2cc(C(F)(F)F)cc(C(=O)Nc3cccc(C(=O)Nc4cccc(OC)n4)c3)c21 [Ex. 173]	340 nM	43%	100%
COCCn1c(-c2ccc(-n3c(C)nn(C)c3=O)cc2)cc2cc(C(F)(F)F)cc(C(=O)Nc3cccc(C(=O)Nc4cccc(COC)n4)c3)c21 [Ex. 174]	680 nM	70%	
COCCn1c(-c2ccc(-n3c(C)nn(C)c3=O)cc2)cc2cc(C(F)(F)F)cc(C(=O)Nc3cccc(C(=O)Nc4cccn(C)c4=O)c3)c21 [Ex. 175]	400 nM	65%	
COCCn1c(-c2ccc(-n3c(C)nn(C)c3=O)cc2)cc2cc(C(F)(F)F)cc(C(=O)Nc3cccc(C(=O)Nc4cc(Cl)n(C)n4)c3)c21 [Ex. 176]	280 nM	93%	
CCn1ccc(NC(=O)c2cccc(NC(=O)c3cc(C(F)(F)F)cc4cc(-c5ccc(-n6c(C)nn(C)c6=O)cc5)n(CCOC)c34)c2)n1 [Ex. 177]	300 nM	99%	

SMILES	IC50 [1]	inhibition at 0.1 µM [2]	inhibition at 1 µM [2]
COCCn1c(-c2ccc(-n3c(C)nn(C)c3=O)cc2)cc2cc(C(F)(F)F)cc(C(=O)Nc3cccc(C(=O)Nc4ccn(C5CC5)n4)c3)c21 [Ex. 178]	280 nM	100%	
COCCn1c(-c2ccc(-n3c(C)nn(C)c3=O)cc2)cc2cc(C(F)(F)F)cc(C(=O)Nc3cccc(C(=O)Nc4cc(C#N)n(C)n4)c3)c21 [Ex. 179]	320 nM	93%	
COCCn1c(-c2ccc(-n3c(C)nn(C)c3=O)cc2)cc2cc(C(F)(F)F)cc(C(=O)Nc3cccc(C(=O)Nc4ccn(CC5CC5)n4)c3)c21 [Ex. 180]	300 nM	100%	
COCCn1c(-c2ccc(-n3c(C)nn(C)c3=O)cc2)cc2cc(C(F)(F)F)cc(C(=O)Nc3cccc(C(=O)Nc4ccn(CC(=O)OC)n4)c3)c21 [Ex. 181]	310 nM	94%	
COCCn1c(-c2ccc(-n3c(C)nn(C)c3=O)cc2)cc2cc(C(F)(F)F)cc(C(=O)Nc3cccc(C(=O)Nc4ccc(C)nn4)c3)c21 [Ex. 182]	350 nM	52%	100%
COCCn1c(-c2ccc(-n3c(C)nn(C)c3=O)cc2)cc2cc(C(F)(F)F)cc(C(=O)Nc3cccc(C(=O)Nc4ccn(CC#N)n4)c3)c21 [Ex. 183]	230 nM	86%	
CCn1c(-c2ccc(-n3c(C)nn(C)c3=O)cc2)cc2ccnc(C(=O)Nc3ccc(F)c(C(=O)Nc4cc[nH]n4)c3)c21 [Ex. 185]	470 nM	34%	96%
CCn1c(-c2ccc(-n3c(C)nn(C)c3=O)cc2)cc2ccnc(C(=O)Nc3cccc(C(=O)Nc4cccn(C(F)F)c4=O)c3)c21 [Ex. 186]	330 nM	43%	96%
CCn1c(-c2ccc(-n3c(C)nn(C)c3=O)cc2)cc2ccnc(C(=O)Nc3cccc(C(=O)Nc4ccc(C)n(C)c4=O)c3)c21 [Ex. 187]	340 nM	88%	
CCn1c(-c2ccc(-n3c(C)nn(C)c3=O)cc2)cc2ccnc(C(=O)Nc3cccc(C(=O)Nc4c(C)ccn(C)c4=O)c3)c21 [Ex. 188]	320 nM	44%	97%
CCn1c(-c2ccc(-n3c(C)nn(C)c3=O)cc2)cc2ccnc(C(=O)Nc3cccc(C(=O)NCC#N)c3)c21 [Ex. 189]	380 nM	72%	97%
CCn1c(-c2ccc(-n3c(C)nn(C)c3=O)cc2)cc2ccnc(C(=O)Nc3cccc(C(=O)NCC#N)c3F)c21 [Ex. 190]	410 nM	66%	97%
CCn1c(-c2ccc(-n3c(C)nn(C)c3=O)cc2)cc2ccnc(C(=O)Nc3ccc(F)c(C(=O)Nc4cn(C)c(=O)n(C)c4=O)c3)c21 [Ex. 191]	290 nM	63%	
CCn1c(-c2ccc(-n3c(C)nn(C)c3=O)cc2)cc2ccnc(C(=O)Nc3ccc(F)c(C(=O)Nc4cncn(C)c4=O)c3)c21 [Ex. 192]	340 nM	71%	
CCn1c(-c2ccc(-n3c(C)nn(C)c3=O)cc2)cc2ccnc(C(=O)Nc3cccc(C(=O)Nc4cncn(C)c4=O)c3F)c21 [Ex. 193]	420 nM	67%	98%
CCn1c(-c2ccc(-n3c(C)nn(C)c3=O)cc2)cc2ccnc(C(=O)Nc3ccc(F)c(C(=O)Nc4cc(C)cn(C)c4=O)c3)c21 [Ex. 194]	420 nM	68%	98%
CCn1c(-c2ccc(-n3c(C)nn(C)c3=O)cc2)cc2ccnc(C(=O)Nc3ccc(F)c(C(=O)Nc4ccc(C)n(C)c4=O)c3)c21 [Ex. 195]	290 nM	56%	
